The NIST ThermoML archive (doi:10.1021/acs.jced.5b00934)

Conditions: Liquid, Vibrating tube method

CCC(C)O (stereo not drawn) [butan-2-ol]
Conditions	mass density [kg/m3]
303.15 K, 20032 kPa	813.3
303.15 K, 21980 kPa	814.6
303.15 K, 25089 kPa	816.7
303.15 K, 27989 kPa	818.6
303.15 K, 30014 kPa	819.9
303.15 K, 32951 kPa	821.7
303.15 K, 33007 kPa	821.7
303.15 K, 33998 kPa	822.3
303.15 K, 38048 kPa	824.8
303.15 K, 40020 kPa	826
303.15 K, 42004 kPa	827.1
303.15 K, 44999 kPa	828.9
303.15 K, 45386 kPa	829.1
303.15 K, 48182 kPa	830.7
303.15 K, 50063 kPa	831.8
303.15 K, 51975 kPa	832.8
303.16 K, 469 kPa	798.5
303.16 K, 7034 kPa	803.7
303.16 K, 9943 kPa	806
303.16 K, 11919 kPa	807.5
303.16 K, 15070 kPa	809.8
303.16 K, 31992 kPa	821.1
303.16 K, 35073 kPa	823
303.16 K, 55053 kPa	834.5
303.16 K, 57971 kPa	836.1
303.16 K, 59945 kPa	837.1
303.16 K, 62023 kPa	838.2
303.16 K, 64910 kPa	839.7
303.16 K, 66100 kPa	840.3
308.15 K, 99 kPa	793.9
308.15 K, 284 kPa	794.1
308.15 K, 499 kPa	794.3
308.15 K, 1030 kPa	794.8
308.15 K, 2012 kPa	795.6
308.15 K, 3016 kPa	796.4
308.15 K, 10011 kPa	802
308.15 K, 17937 kPa	808
308.15 K, 31948 kPa	817.5
308.15 K, 32957 kPa	818.2
308.15 K, 33017 kPa	818.2
308.15 K, 34003 kPa	818.8
308.15 K, 38001 kPa	821.3
308.15 K, 45022 kPa	825.5
308.15 K, 50010 kPa	828.4
308.15 K, 52016 kPa	829.5
308.15 K, 54994 kPa	831.2
308.15 K, 58005 kPa	832.8
308.15 K, 60029 kPa	833.9
308.16 K, 919 kPa	794.6
308.16 K, 5009 kPa	798.1
308.16 K, 7020 kPa	799.7
308.16 K, 9036 kPa	801.3
308.16 K, 11963 kPa	803.6
308.16 K, 15014 kPa	805.8
308.16 K, 19942 kPa	809.4
308.16 K, 22125 kPa	810.9
308.16 K, 25007 kPa	813
308.16 K, 28001 kPa	815
308.16 K, 30046 kPa	816.3
308.16 K, 35061 kPa	819.4
308.16 K, 40051 kPa	822.5
308.16 K, 41974 kPa	823.7
308.16 K, 47997 kPa	827.2
308.16 K, 61986 kPa	835
308.16 K, 64977 kPa	836.6
308.16 K, 66129 kPa	837.2
313.15 K, 97 kPa	789.4
313.15 K, 331 kPa	789.6
313.15 K, 521 kPa	789.8
313.15 K, 925 kPa	790.2
313.15 K, 1936 kPa	791
313.15 K, 2964 kPa	791.9
313.15 K, 10109 kPa	797.8
313.15 K, 12051 kPa	799.4
313.15 K, 22039 kPa	806.9
313.15 K, 24988 kPa	809
313.15 K, 27962 kPa	811
313.15 K, 30012 kPa	812.4
313.15 K, 32043 kPa	813.7
313.15 K, 33039 kPa	814.4
313.15 K, 33084 kPa	814.4
313.15 K, 37907 kPa	817.5
313.15 K, 42039 kPa	820
313.15 K, 50005 kPa	824.8
313.15 K, 58031 kPa	829.3
313.16 K, 1053 kPa	790.3
313.16 K, 5002 kPa	793.7
313.16 K, 6986 kPa	795.3
313.16 K, 8976 kPa	797
313.16 K, 14996 kPa	801.7
313.16 K, 17980 kPa	803.9
313.16 K, 20012 kPa	805.4
313.16 K, 34096 kPa	815
313.16 K, 35045 kPa	815.6
313.16 K, 40135 kPa	818.9
313.16 K, 45006 kPa	821.8
313.16 K, 48081 kPa	823.7
313.16 K, 52025 kPa	826
313.16 K, 55030 kPa	827.7
313.16 K, 60001 kPa	830.4
313.16 K, 62068 kPa	831.6
313.16 K, 65053 kPa	833.2
313.16 K, 66058 kPa	833.7
318.15 K, 102 kPa	784.8
318.15 K, 288 kPa	785
318.15 K, 909 kPa	785.5
318.15 K, 9293 kPa	792.8
318.15 K, 12039 kPa	795.1
318.15 K, 14977 kPa	797.4
318.15 K, 17998 kPa	799.8
318.15 K, 20024 kPa	801.3
318.15 K, 24907 kPa	804.9
318.15 K, 27973 kPa	807.1
318.15 K, 30001 kPa	808.5
318.15 K, 32873 kPa	810.4
318.15 K, 33033 kPa	810.4
318.15 K, 45210 kPa	818.3
318.15 K, 48072 kPa	820.1
318.15 K, 49996 kPa	821.2
318.15 K, 57926 kPa	825.8
318.16 K, 476 kPa	785.1
318.16 K, 1004 kPa	785.6
318.16 K, 1987 kPa	786.5
318.16 K, 3033 kPa	787.4
318.16 K, 5011 kPa	789.2
318.16 K, 6978 kPa	790.9
318.16 K, 10006 kPa	793.4
318.16 K, 22040 kPa	802.8
318.16 K, 32063 kPa	809.9
318.16 K, 33988 kPa	811.1
318.16 K, 34997 kPa	811.8
318.16 K, 38029 kPa	813.7
318.16 K, 39963 kPa	815
318.16 K, 42133 kPa	816.4
318.16 K, 51984 kPa	822.4
318.16 K, 54987 kPa	824.1
318.16 K, 60004 kPa	827
318.16 K, 62005 kPa	828.1
318.16 K, 65012 kPa	829.7
318.16 K, 66081 kPa	830.3
323.15 K, 539 kPa	780.5
323.15 K, 1027 kPa	781
323.15 K, 5007 kPa	784.7
323.15 K, 7056 kPa	786.5
323.15 K, 9085 kPa	788.3
323.15 K, 10245 kPa	789.3
323.15 K, 12118 kPa	790.8
323.15 K, 15027 kPa	793.2
323.15 K, 18033 kPa	795.6
323.15 K, 20133 kPa	797.2
323.15 K, 25015 kPa	800.9
323.15 K, 28096 kPa	803.1
323.15 K, 33113 kPa	806.7
323.15 K, 37980 kPa	809.9
323.15 K, 40058 kPa	811.2
323.15 K, 42026 kPa	812.5
323.15 K, 50034 kPa	817.5
323.15 K, 52055 kPa	818.7
